This experiment concerns BDF1 mice, P388 leukemia ip, median survival T/C. Briefly: NCI In Vivo Anticancer Drug Screen. Data for tumor model P388 Leukemia (intraperitoneal) in B6D2F1 (BDF1) mice. To be noted: endpoint: median survival time, higher = longer survival. In short, it runs like this: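 In tumour-bearing mice, survival after compound treatment is set against the vehicle group and given as a quotient.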

Setting [1] is: dose: 100.0 mg/kg/injection, schedule: Q01DX009 (ip), vehicle: saline.
Setting [2] is: dose: 100.0 mg/kg/injection, schedule: Q04DX003 (ip), vehicle: saline.
The mark [3] stands for this setting: dose: 200.0 mg/kg/injection, schedule: Q01DX009 (ip), vehicle: saline.
Setting [4] is: dose: 200.0 mg/kg/injection, schedule: Q04DX003 (ip), vehicle: saline.
Setting [5] is: dose: 400.0 mg/kg/injection, schedule: Q04DX003 (ip), vehicle: saline.
[6] abbreviates: dose: 25.0 mg/kg/injection, schedule: Q04DX003 (ip), vehicle: saline.
The mark [7] stands for this setting: dose: 50.0 mg/kg/injection, schedule: Q04DX003 (ip), vehicle: saline.
The mark [8] stands for this setting: dose: 25.0 mg/kg/injection, schedule: Q01DX009 (ip), vehicle: saline with Tween-80.
Setting [9] is: dose: 50.0 mg/kg/injection, schedule: Q01DX009 (ip), vehicle: saline with Tween-80.
The mark [10] stands for this setting: dose: 12.5 mg/kg/injection, schedule: Q01DX009 (ip), vehicle: water.
Setting [11] is: dose: 25.0 mg/kg/injection, schedule: Q01DX009 (ip), vehicle: water.
The mark [12] stands for this setting: dose: 50.0 mg/kg/injection, schedule: Q01DX009 (ip), vehicle: water.

Where “and” joins values, the source holds several entries; their conditions need not be identical. Identical values can stand only once. Inconclusive results and toxic doses are left out. Residues, ends and D or L forms follow the SMILES beside them.

In the case of `N=Cc1c(O)[nH]c(=O)[nH]c1=O`, the T/C is, setting by setting: under setting [1], 109 % of control; under setting [2], 92 % of control; under setting [3], 109 % of control; under setting [4], 107 % of control; (dose: 400.0 mg/kg/injection, schedule: Q01DX009 (ip), vehicle: saline) 118 % of control; under setting [5], 92 % of control.

For `COc1cc2cc3c4cc5c(cc4cc[n+]3c(C)c2cc1OC)OCO5` (tested in a mixture with another compound), the T/C runs as follows: (dose: 1.46 mg/kg/injection, schedule: Q04DX003 (ip), vehicle: saline) 117 % of control; (dose: 16.5 mg/kg/injection, schedule: Q04DX003 (ip), vehicle: saline) 150 % of control; under setting [6], 156 % of control and 159 % of control; (dose: 44.0 mg/kg/injection, schedule: Q04DX003 (ip), vehicle: saline) 168 % of control; under setting [7], 160 % of control; (dose: 66.0 mg/kg/injection, schedule: Q04DX003 (ip), vehicle: saline) 177 % of control. In addition, under setting [2], the T/C is 163 % of control and 182 % of control.

For the compound `O=S(=O)(O)O.[W]`, the T/C is, setting by setting: (dose: 0.75 mg/kg/injection, schedule: Q01DX009 (ip), vehicle: saline) 96 % of control; (dose: 3.0 mg/kg/injection, schedule: Q01DX009 (ip), vehicle: saline) 90 % of control.

As for `CC(C)CCNc1ncnc2[nH]ncc12`, the T/C runs as follows: (dose: 5.5 mg/kg/injection, schedule: Q01DX009 (ip), vehicle: Klucel (hydroxypropylcellulose) (HPC)) 95 % of control; (dose: 8.2 mg/kg/injection, schedule: Q01DX009 (ip), vehicle: Klucel (hydroxypropylcellulose) (HPC)) 100 % of control; (dose: 18.75 mg/kg/injection, schedule: Q04DX003 (ip), vehicle: Klucel (hydroxypropylcellulose) (HPC)) 86 % of control; (dose: 25.0 mg/kg/injection, schedule: Q01DX009 (ip), vehicle: Klucel (hydroxypropylcellulose) (HPC)) 90 % of control; under setting [8], 90 % of control; (dose: 37.5 mg/kg/injection, schedule: Q04DX003 (ip), vehicle: Klucel (hydroxypropylcellulose) (HPC)) 104 % of control. The T/C reads like this: under setting [9], 90 % of control; (dose: 75.0 mg/kg/injection, schedule: Q04DX003 (ip), vehicle: Klucel (hydroxypropylcellulose) (HPC)) 86 % of control.

On to `CCCSC(CC=O)CCC` (centres undefined), for which the T/C is 106 % of control (dose: 100.0 mg/kg/injection, schedule: Q01DX001 (ip), vehicle: suspension in saline); 92 % of control (dose: 200.0 mg/kg/injection, schedule: Q01DX001 (ip), vehicle: suspension in saline); 88 % of control (dose: 400.0 mg/kg/injection, schedule: Q01DX001 (ip), vehicle: suspension in saline).

With `COc1cccc(CC(N)=O)c1OC`, the T/C by setting is: (dose: 25.0 mg/kg/injection, schedule: Q01DX009 (ip), vehicle: saline) 99 % of control; (dose: 50.0 mg/kg/injection, schedule: Q01DX009 (ip), vehicle: saline) 99 % of control; under setting [7], 109 % of control; under setting [1], 97 % of control; under setting [2], 87 % of control and 99 % of control; under setting [3], 92 % of control. Further, the T/C is 90 % of control and 94 % of control under setting [4]; 100 % of control under setting [5].

For the compound `Cc1c2cc3c(cc2cc2c4cc5c(cc4cc[n+]12)OCO5)OCO3` (tested in a mixture with another compound), the T/C is 159 % of control (dose: 3.0 mg/kg/injection, schedule: Q04DX003 (ip), vehicle: saline); 98 % of control (dose: 3.13 mg/kg/injection, schedule: Q01DX009 (ip), vehicle: saline); 150 % of control and 177 % of control (dose: 5.56 mg/kg/injection, schedule: Q04DX003 (ip), vehicle: saline); 89 % of control (dose: 6.25 mg/kg/injection, schedule: Q01DX009 (ip), vehicle: saline); 170 % of control (dose: 6.25 mg/kg/injection, schedule: Q04DX003 (ip), vehicle: saline); 172 % of control and 200 % of control (dose: 8.33 mg/kg/injection, schedule: Q04DX003 (ip), vehicle: saline). Further, the T/C (dose: 12.5 mg/kg/injection, schedule: Q04DX003 (ip), vehicle: saline) was 150 % of control and 177 % of control and 190 % of control; the T/C (dose: 18.7 mg/kg/injection, schedule: Q04DX003 (ip), vehicle: saline) is 113 % of control; the T/C under setting [6] was 95 % of control.

Take `Cn1c(=O)c2nc(-c3ccc(Cl)c(Cl)c3)c(-c3ccc(Cl)c(Cl)c3)nc2n(C)c1=O`: the T/C is 100 % of control (dose: 3.13 mg/kg/injection, schedule: Q01DX001 (ip), vehicle: saline with Tween-80); 101 % of control (dose: 6.25 mg/kg/injection, schedule: Q01DX001 (ip), vehicle: saline with Tween-80); 99 % of control (dose: 12.5 mg/kg/injection, schedule: Q01DX001 (ip), vehicle: saline with Tween-80); 90 % of control and 101 % of control (dose: 25.0 mg/kg/injection, schedule: Q01DX001 (ip), vehicle: saline with Tween-80); 107 % of control (dose: 50.0 mg/kg/injection, schedule: Q01DX001 (ip), vehicle: saline with Tween-80); 87 % of control (dose: 100.0 mg/kg/injection, schedule: Q01DX001 (ip), vehicle: saline with Tween-80). Besides, the T/C (dose: 400.0 mg/kg/injection, schedule: Q01DX001 (ip), vehicle: saline with Tween-80) is 96 % of control.

On to `COc1ccc(C(=O)/C(Br)=C/C(=O)O)cc1`, for which the T/C runs as follows: (dose: 6.3 mg/kg/injection, schedule: Q01DX009 (ip), vehicle: saline) 106 % of control; under setting [10], 120 % of control; under setting [11], 150 % of control; (dose: 25.0 mg/kg/injection, schedule: Q04DX002 (ip), vehicle: saline) 108 % of control and 109 % of control; under setting [12], 100 % of control; (dose: 50.0 mg/kg/injection, schedule: Q04DX002 (ip), vehicle: saline) 116 % of control and 118 % of control. Besides, the T/C (dose: 100.0 mg/kg/injection, schedule: Q04DX002 (ip), vehicle: saline) is 150 % of control.

`NCCCCC(N)C(=O)NC(CCCN=C(N)N)C(=O)O` (stereo not drawn) (H-Lys-Arg-OH; configuration not given here): the T/C is 101 % of control (dose: 3.12 mg/kg/injection, schedule: Q01DX009 (ip), vehicle: water); 97 % of control and 99 % of control and 117 % of control (dose: 6.25 mg/kg/injection, schedule: Q01DX009 (ip), vehicle: water); 105 % of control and 109 % of control under setting [10]; 101 % of control and 104 % of control and 118 % of control under setting [11]; 93 % of control and 94 % of control and 95 % of control under setting [12]; 90 % of control and 100 % of control and 113 % of control (dose: 100.0 mg/kg/injection, schedule: Q01DX009 (ip), vehicle: water). Also, under “dose: 200.0 mg/kg/injection, schedule: Q01DX009 (ip), vehicle: water”, the T/C is 109 % of control.

As to `O=C1c2cc3c(cc2CCC1c1ccc2c(c1)OCO2)OCO3` (centres undefined), the T/C is, setting by setting: (dose: 20.0 mg/kg/injection, schedule: Q01DX009 (ip), vehicle: saline with Tween-80) 91 % of control; (dose: 40.0 mg/kg/injection, schedule: Q01DX009 (ip), vehicle: saline with Tween-80) 91 % of control; (dose: 120.0 mg/kg/injection, schedule: Q01DX009 (ip), vehicle: saline with Tween-80) 95 % of control; (dose: 240.0 mg/kg/injection, schedule: Q01DX009 (ip), vehicle: saline with Tween-80) 91 % of control.

As to `CCOC1CC2c3ccccc3C1c1cccc[n+]12` (centres undefined), the T/C reads like this: (dose: 9.37 mg/kg/injection, schedule: Q01DX009 (ip), vehicle: saline) 108 % of control; (dose: 18.75 mg/kg/injection, schedule: Q01DX009 (ip), vehicle: saline) 108 % of control; (dose: 37.5 mg/kg/injection, schedule: Q01DX009 (ip), vehicle: saline) 91 % of control.

Consider `CN(C)CSCN(C)C`, for which the T/C is, setting by setting: under setting [8], 100 % of control; under setting [9], 111 % of control; (dose: 100.0 mg/kg/injection, schedule: Q01DX009 (ip), vehicle: saline with Tween-80) 102 % of control.

The values are drawn from PubChem BioAssay AID328 (DTP/NCI, 2004).
